Legend:
kainate receptors = details: Narita et al. 1993; cited from earlier work
[1] = system: ventromedial nucleus of hypothalamus (VMH) of rat; details: VMH stimulated by water absorbent polymers, Yokawa et al. 1990; cited from earlier work
Arbor Acres broilers = assay: Fattening of broilers with feed containing GABA (day 21 to day 41 after birth); assay type: in vivo; details: for increase in the body weight per 1 kg of feed during day 21 to day 41 after birth: compared to 0% group (p<0.05), FIG. 2; for increase in the body weight from day 21 to day 41 after birth: FIG. 1

O=C1N=c2cc([N+](=O)[O-])c([N+](=O)[O-])cc2=NC1=O [DNQX, 6,7-dinitroquinoxaline-2,3-dione]
inhibition of kainate-induced running activity in rat (kainate receptors): inhibited

NCCCC(=O)O [GABA, γ-aminobutyric acid]
induction of rat running activity caused by polymers [1]: inhibited | increase in the body weight per 1 kg of feed during day 21 to day 41 after birth (Arbor Acres broilers; 0.5% GABA additive rate): significant increase | increase in the body weight from day 21 to day 41 after birth (Arbor Acres broilers; 0.5% additive rate of GABA in feed): tendency of increase was also observed at 0.5% but the significant difference was not clearly observed | increase in the body weight per 1 kg of feed during day 21 to day 41 after birth (Arbor Acres broilers; 1% GABA additive rate): significant increase | increase in the body weight from day 21 to day 41 after birth (Arbor Acres broilers; 1% additive rate of GABA in feed): maximum increase | increase in the body weight per 1 kg of feed during day 21 to day 41 after birth (Arbor Acres broilers; 3% GABA additive rate): significant increase

C=C(C)[C@H]1CN[C@H](C(=O)O)[C@H]1CC(=O)O [kainate]
running activity in rat (kainate receptors): induced

— US20040219189A1 (priority 2001, published 2004)
